For series [1], the system named is NCI-H460. The series can be described thus: Cytotoxicity against human NCI-H460 cells at 2 ug/mL after 72 hrs by MTT assay. The series is classed as cell-based. Particulars: nci-h460, 72 h. Background: Tetrazolium dyes change colour on reduction, which living cells bring about.
Series [2] concerns MIA PaCa-2. The experiment in a line: Cytotoxicity against human MIAPaCa2 cells at 4 ug/mL after 72 hrs by MTT assay. The series is classed as cell-based. The conditions noted are these: mia paca-2, 72 h.
Series [3] relates to NCI-H460. The experiment in a line: Cytotoxicity against human NCI-H460 cells at 4 ug/mL after 72 hrs by MTT assay. The series is classed as cell-based. Particulars: nci-h460, 72 h.
The test system of series [4] is MCF7. The experiment in a line: Cytotoxicity against human MCF7 cells at 4 ug/mL after 72 hrs by MTT assay. Particulars: mcf7, 72 h. The series is classed as cell-based.
Series [5] concerns MIA PaCa-2. The experiment in a line: Cytotoxicity against human MIAPaCa2 cells at 2 ug/mL after 72 hrs by MTT assay. The series is classed as cell-based. The conditions noted are these: mia paca-2, 72 h.
Series [6] has as its system SF-268. The series can be described thus: Cytotoxicity against human SF268 cells at 2 ug/mL after 72 hrs by MTT assay. The series is classed as functional, cell-based.
The subject of series [7] is MCF7. The series can be described thus: Cytotoxicity against human MCF7 cells at 2 ug/mL after 72 hrs by MTT assay. Particulars: mcf7, 72 h. The series is classed as cell-based.
In series [8] the test system is SF-268. The experiment in a line: Cytotoxicity against human SF268 cells at 4 ug/mL after 72 hrs by MTT assay. The series is classed as functional, cell-based.
For a further series, the system named is MDA-MB-231. The experiment in a line: Inhibition of cell proliferation in MDA-MB-231 cells after 40 hrs by MTT assay. The series is classed as functional, cell-based. Particulars: Homo sapiens, MDA-MB-231, 40 h.
Series [9] concerns NCI-H460. The experiment in a line: Cytotoxicity against human NCI-H460 cells after 72 hrs by MTT assay. The series is classed as cell-based. Particulars: NCI-H460, 72 h.
Series [10] concerns MCF7. The series can be described thus: Cytotoxicity against human MCF7 cells after 72 hrs by MTT assay. The series is classed as cell-based. The conditions noted are these: MCF7, 72 h.
Series [11] in a line: Antiangiogenic activity in HUVEC-2 cells assessed as inhibition of endothelial cell network formation after 16 hrs. The series is classed as functional, cell-based. Particulars: Homo sapiens.
For series [12], the system named is SF-268. The series can be described thus: Cytotoxicity against human SF268 cells after 72 hrs by MTT assay. The series is classed as functional, cell-based. The conditions noted are these: SF-268, 72 h.
In series [13] the test system is MIA PaCa-2. The experiment in a line: Cytotoxicity against human MIAPaCa2 cells after 72 hrs by MTT assay. The series is classed as cell-based. The conditions noted are these: MIA PaCa-2, 72 h.
Another series concerns HUVEC. The experiment in a line: Antiangiogenic activity in HUVEC-2 cells assessed as inhibition of endothelial cell network formation after 16 hrs at 3 uM. The series is classed as functional, cell-based. Particulars: Homo sapiens.
A short description of series [14]: Inhibition of cell proliferation in PC3M cells after 20 hrs by MTT assay. Particulars: Homo sapiens, PC-3M. The series is classed as functional, cell-based.

The source made the active and inactive calls. The calls are words filed in the database; no cut-off is given here.

As to `COC1=CC(=O)c2c(cc3oc4cc(OC)cc(C)c4c(=O)c3c2O)C1=O`, the Activity result in the series with NCI-H460 [1], in the series with MIA PaCa-2 [2], with NCI-H460 [3], in the series on MCF7 [4], in the series with MIA PaCa-2 [5] and in the series with MCF7 [7] was “Not Active” throughout. In addition, the outcome with SF-268 [6] and with SF-268 [8] was inactive.
Take `CC(C)[C@@H]1OC(=O)[C@@H](Cc2ccccc2)N(C)C(=O)[C@H](C(C)C)OC(=O)[C@@H](Cc2ccccc2)N(C)C(=O)[C@H](C(C)C)OC(=O)[C@@H](Cc2ccccc2)N(C)C1=O` [BEAUVERICIN]: the values for the IC25 (in the series on MDA-MB-231; in series [11]; in series [14]) were 6.4 µM, 5 µM and 2.3 µM, respectively. For the same compound, the IC50 (as a rule, the concentration that inhibits the measured activity by half) with MDA-MB-231 was found to be 7.5 µM; in the series with NCI-H460 [9], 1.41 µM; in the series with MCF7 [10] it was 1.81 µM; in series [11], 7.5 µM; in the series on SF-268 [12] it was 2.29 µM; in the series with MIA PaCa-2 [13], 1.66 µM. Further, in series [14], the IC50 was found to be 3.8 µM. Moreover, the result with HUVEC was Active.
As to `COC1=CC(=O)c2c(c(O)c3oc4cc(OC)cc(C)c4c(=O)c3c2O)C1=O` [BIKAVERIN], the IC50 is 0.43 µM in the series with NCI-H460 [9], 0.42 µM in the series with MCF7 [10], 0.38 µM with SF-268 [12] and 0.26 µM with MIA PaCa-2 [13].
Consider `COc1cccc2c1C(=O)c1c(O)c3c(c(O)c1C2=O)C[C@@](O)(C(=O)CO)C[C@@H]3O[C@H]1C[C@H](N)[C@H](O)[C@H](C)O1` [DOXORUBICIN], for which the values for the IC50 with NCI-H460 [9], with SF-268 [12] and in the series with MIA PaCa-2 [13] were 0.01 µM, 0.04 µM and 0.05 µM, respectively.

These data come from ChEMBL document CHEMBL1141412, “Search for cell motility and angiogenesis inhibitors with potential anticancer activity: beauvericin and other constituents of two endophytic strains of Fusarium oxysporum” (J Nat Prod, 2007).
